Values after ≈ are worked out from the molar mass of the structure shown. Like-named read-outs stand apart in the source and are kept apart here.
Tests used:
S. aureus ATCC 29213 [1] = assay: Supplemented disc diffusion assay (DDA + salt, lipid or blood); format: cell-based, Staphylococcus aureus; details: 200 μg per disc (thymoquinone 50 μg); for DDA + blood: agar supplemented with blood; for DDA + lipid: agar supplemented with lipid; for DDA + salt: agar supplemented with salt
Method: The staphylococci and enterococci were cultured and maintained on Mueller-Hinton Medium (agar and broth) at pH 7.2; they were incubated aerobically at 37° C. for 24 hours. A sterile paper disc was impregnated with a sample of the test compound and a minimum of 30 minutes allowed for the solvents to evaporate as far as possible. The disc was then placed on an agar plate onto which the test micro-organism had been inoculated. The plate was then incubated under the conditions described above, following which it was examined visually for signs of bacterial growth. If the test compound had antimicrobial activity, a circular zone of no growth would be obtained around the disc. The diameter of this zone of “inhibition” was measured using a ProtoCOL™ automated zone sizer (Synbiosis, Cambridge, UK). In general, a greater diameter and/or area of the zone of inhibition indicates a greater antimicrobial activity in the relevant test compound, although other factors such as test compound mobility through the agar gel may also influence the result. Either the DDA or the SDDA tests may be carried out using an agar gel supplemented with blood, lipid and/or salt to simulate some of the major components present in human skin and to assess whether these substances might reduce the antimicrobial activity observed for the test compounds. Performance under these conditions can provide a more reliable indication of activity on topical application. […] MIC, MBC and DDA assays, as described above, were carried out using the test compound benzoyl peroxide (BP) and a range of different benzoquinones and hydroquinones. Supplemented DDA assays, in the presence of salt, lipid and blood, were also conducted. […] The exceptions were the thymoquinone assays, in which only 50 μg of the benzoquinone was used.

P. acnes NCTC 737 [2] = assay: MBC assay; format: cell-based, Propionibacterium acnes
Method: 2. Propionibacterium spp.—the principal propionibacterial strain used in these studies was Propionibacterium acnes NCTC 737. This is the type strain of the genus; it is fully susceptible to antibiotics.
(§1) The Propionibacterium spp organisms were cultured and maintained on Wilkins-Chalgren Anaerobe Medium (agar and broth) at pH 6.0; cultures were incubated anaerobically at 37° C. for 72 hours.
This assay, normally carried out after an MIC assay, determines the minimum concentration of a compound that is lethal to the micro-organism being tested.
These samples were then individually sub-cultured on non-selective agar medium, under the incubation conditions described above. Following incubation they were examined visually for bacterial growth.

S. aureus ATCC 29213 [3] = assay: Disc diffusion assay (DDA); format: cell-based, Staphylococcus aureus
Text: 1. Staphylococcus aureus—the principal staphylococcal test micro-organism used in these studies was Staphylococcus aureus ATCC 29213. This strain is the one recommended for QC/QA purposes in Minimum Inhibitory Concentration (MIC) assays by the US Clinical and Laboratory Standards Institute (formerly the NCCLS), an FDA-recognised body. S. aureus ATCC 29213 is susceptible to beta-lactam antibiotics such as methicillin and to many other antibiotics in clinical use worldwide today. The staphylococci and enterococci were cultured and maintained on Mueller-Hinton Medium (agar and broth) at pH 7.2; they were incubated aerobically at 37° C. for 24 hours. A sterile paper disc was impregnated with a sample of the test compound and a minimum of 30 minutes allowed for the solvents to evaporate as far as possible. The disc was then placed on an agar plate onto which the test micro-organism had been inoculated. The plate was then incubated under the conditions described above, following which it was examined visually for signs of bacterial growth. If the test compound had antimicrobial activity, a circular zone of no growth would be obtained around the disc. The diameter of this zone of “inhibition” was measured using a ProtoCOL™ automated zone sizer (Synbiosis, Cambridge, UK). In general, a greater diameter and/or area of the zone of inhibition indicates a greater antimicrobial activity in the relevant test compound, although other factors such as test compound mobility through the agar gel may also influence the result. […] The exceptions were the thymoquinone assays, in which only 50 μg of the benzoquinone was used.

S. aureus ATCC 29213 [4] = assay: MBC assay; format: cell-based, Staphylococcus aureus
Method: 1. Staphylococcus aureus—the principal staphylococcal test micro-organism used in these studies was Staphylococcus aureus ATCC 29213. This strain is the one recommended for QC/QA purposes in Minimum Inhibitory Concentration (MIC) assays by the US Clinical and Laboratory Standards Institute (formerly the NCCLS), an FDA-recognised body. […] The staphylococci and enterococci were cultured and maintained on Mueller-Hinton Medium (agar and broth) at pH 7.2; they were incubated aerobically at 37° C. for 24 hours. This assay, normally carried out after an MIC assay, determines the minimum concentration of a compound that is lethal to the micro-organism being tested. […] These samples were then individually sub-cultured on non-selective agar medium, under the incubation conditions described above. Following incubation they were examined visually for bacterial growth.

P. acnes NCTC 737 [5] = assay: Disc diffusion assay (DDA); format: cell-based, Propionibacterium acnes; details: 200 μg per disc
Method: 2. Propionibacterium spp.—the principal propionibacterial strain used in these studies was Propionibacterium acnes NCTC 737.
as §1
A sterile paper disc was impregnated with a sample of the test compound and a minimum of 30 minutes allowed for the solvents to evaporate as far as possible. The disc was then placed on an agar plate onto which the test micro-organism had been inoculated. The plate was then incubated under the conditions described above, following which it was examined visually for signs of bacterial growth. […] The diameter of this zone of “inhibition” was measured using a ProtoCOL™ automated zone sizer (Synbiosis, Cambridge, UK).
The area of the zone of inhibition was calculated from the measured zone diameter (D) using the formula π(D/2)^2.
For all (S)DDA assays, 200 μg of each compound was loaded onto each disc.

[6] = P. acnes NCTC 737, Table 7 (Example 6)
[7] = Table 1, zone diameter, 200 μg per disc (thymoquinone 50 μg)
[8] = S. aureus ATCC 29213, Table 1 (Example 1)
[9] = Cutibacterium acnes, NCTC737, P. acnes NCTC 737, Table 7 (Example 6), read-out: MBC
[10] = Cutibacterium acnes, NCTC737, P. acnes NCTC 737 (resistance None), Table 9 (Example 8)
[11] = Cutibacterium acnes, NCTC737, P. acnes NCTC 737, Table 7 (Example 6)
[12] = Table 6 (Example 5), zone diameter, 200 μg per disc
[13] = Staphylococcus aureus, ATCC29213, S. aureus ATCC 29213, Table 1 (Example 1), read-out: MBC
[14] = Table 10 (Example 8), zone diameter

| Compound | DDA + blood (S. aureus ATCC 29213 [1]) | DDA + lipid (S. aureus ATCC 29213 [1]) | DDA + salt (S. aureus ATCC 29213 [1]) | MBC (P. acnes NCTC 737 [2]; [6]) | DDA (S. aureus ATCC 29213 [3]; [7]) | MBC (S. aureus ATCC 29213 [4]; [8]) | DDA (P. acnes NCTC 737 [5]; Table 7, zone diameter) | MBC (P. acnes NCTC 737 [2]; [9]) | MBC (P. acnes NCTC 737 [2]; [10]) | MBC (P. acnes NCTC 737 [2]; [11]) | DDA (S. aureus ATCC 29213 [3]; [12]) | MBC (S. aureus ATCC 29213 [4]; S. aureus ATCC 29213, Table 5 (Example 5)) | MBC (S. aureus ATCC 29213 [4]; [13]) | DDA (P. acnes NCTC 737 [5]; [14]) | MBC (S. aureus ATCC 29213 [4]; Staphylococcus aureus, ATCC29213, S. aureus ATCC 29213, Table 5 (Example 5)) | MBC (S. aureus ATCC 29213 [4]; Staphylococcus aureus, ATCC29213, S. aureus ATCC 29213, Table 1 (Example 1)) | DDA (P. acnes NCTC 737 [5]; Table 11 (Example 9), mean of three replicates) |
| --- | --- | --- | --- | --- | --- | --- | --- | --- | --- | --- | --- | --- | --- | --- | --- | --- | --- |
| Oc1ccc(O)cc1 [p-hydroquinone] | 14.01 mm | 15.56 mm | 16.61 mm | >250 µg/mL | 18.94 mm | 62.5 µg/mL (≈ 568 µM) | 0.0 mm | – | – | – | – | – | – | – | – | – | – |
| O=C1C=CC(=O)C=C1 [p-benzoquinone] | 20.31 mm | 29.05 mm | 27.49 mm | – | 29.34 mm | – | 24.87 mm | 62.5 µg/mL (≈ 578 µM) | – | – | – | – | – | – | – | – | – |
| CCc1cc(O)ccc1O [2-ethyl-p-hydroquinone] | 17.74 mm | 23.04 mm | 24.59 mm | 31.25 µg/mL (≈ 226 µM) | 21.06 mm | 15.6 µg/mL (≈ 113 µM) | 9.90 mm | – | – | – | – | – | – | – | – | – | – |
| O=C(OOC(=O)c1ccccc1)c1ccccc1 [benzoyl peroxide] | – | – | – | – | 11.03 mm | – | 24.25 mm | – | 31.2 µg/mL (≈ 129 µM) | 62.5 µg/mL (≈ 258 µM) | 9.61 mm | 250 µg/mL (≈ 1030 µM) | 250 µg/mL (≈ 1030 µM) | 19.25 (±0.18) mm | – | – | – |
| CC1=CC(=O)C(C(C)C)=CC1=O [thymoquinone, 2-iso-propyl-5-methyl-p-benzoquinone] | 0.0 mm | 18.99 mm | 20.54 mm | – | 15.64 mm | – | 27.46 mm | 31.2 µg/mL (≈ 190 µM) | – | – | – | – | 15.6 µg/mL (≈ 95 µM) | – | – | – | – |
| Cc1c(O)ccc(O)c1C [2,3-dimethyl-p-hydroquinone] | 14.32 mm | 35.80 mm | 34.24 mm | 15.6 µg/mL (≈ 113 µM) | 33.41 mm | 7.8 µg/mL (≈ 56.5 µM) | 18.75 mm | – | – | – | – | – | – | – | – | – | – |
| CC(C)(C)c1cc(O)ccc1O [TBHQ, t-butyl hydroquinone] | 10.89 mm | 31.44 mm | 54.16 mm | – | 41.77 mm | – | 9.95 mm | – | 15.6 µg/mL (≈ 93.9 µM) | 15.6 µg/mL (≈ 93.9 µM) | 46.79 mm | – | – | 8.65 (±0.31) mm | 15.6 µg/mL (≈ 93.9 µM) | 7.8 µg/mL (≈ 46.9 µM) | 15.0 mm |
